How the values were obtained:
SB.msgc-1 = experiment: AC50 for growth inhibition (viability) (log10 M); higher = less potent; conditions: SB.msgc-1 (sporadic gastric cancer)
Outline: (§1)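 Dosing used a pintool to add 23 nL compound in DMSO to 1536 wells, each with 500 hereditary or sporadic patient-derived gastric cancer cells, across 11 threefold dilutions starting at a final 46 μM. Viability after 48 h was measured by CellTiter-Glo luminescence on a ViewLux. The log half-maximal activity concentration derives from a four-parameter fit of that viability normalised to DMSO, limited to high-quality curve classes.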

SB.mhdgc-1 = experiment: as above; conditions: SB.mhdgc-1 (hereditary c.1380delA CDH1 gastric cancer)
Outline: as §1

SMILES | AC50 for growth inhibition (log10 M) (SB.msgc-1) | AC50 for growth inhibition (log10 M) (SB.mhdgc-1)
COc1cccc2c(NCc3ccccc3)nc(-n3c(N)nc4ccccc43)nc12 | -5.08 | -5.13
COc1cc(OC)c(/C=C/[S+](=O)([O-])Cc2ccc(OC)c(NCC(=O)[O][Na])c2)c(OC)c1 | -6.33 | -6.03
COC1=CC(=CC(=C1)C2=CC=C3N=CC\4=C(N(C(=O)\C=C4)C5=CC(=C(C=C5)N6CCNCC6)C(F)(F)F)C3=C2)OC | -5.43 | -5.33
COc1cc(NC(=O)c2ccc(-c3ccc(Cl)cc3)o2)cc(OC)c1 | -5.58 | -5.73
COc1cc(C(=O)NC2CCN(C)CC2)ccc1Nc1ncc2c(n1)N(C1CCCC1)CCC(=O)N2C(C)C | -4.73 | -5.13
COc1cc2ncnc(Nc3cccc(Br)c3)c2cc1OC | -6.88 | -7.08
COC1=CC=C(C=N1)C/2=C/C3=C(C)N=C(N)N=C3N(C4CCC(CC4)OCCO)C2=O (stereo not drawn) | -7.18 | -7.88
COC1=CC=CC2=C1C(=NC(=N2)C3=CC=CS3)NN4C(=O)\C=C(C)/C4=O | -4.88 | -5.18
COC1CCC(C(=O)c2ccc3nc4c(cc3c2)CCCO4)CC1 (stereo not drawn) | -4.78 | -4.78
CSC1=CC(=CC=C1)NC2=NC3=C(C=N2)/C=C(C(=O)N3C)/C4=C(Cl)C=CC=C4Cl | -5.93 | -5.78
C[C@H](NC(=O)c1sccc1OCc1ccc(Cl)cc1)c1ccccc1 | -4.73 | -4.98
C[C@]\1(CCS\C(=N1)N)C2=CC(=C(F)C=C2F)C3=CN=CN=C3 | -4.63 | -4.73
Cn1cc(-c2cnn3c(N)c(Br)c([C@H]4CCCNC4)nc23)cn1 | -6.83 | -5.88
CC(=O)N1CCN(c2ccc(OCc3nn(C)c(C)c3-c3cccc4c(CCCOc5cccc6ccccc56)c(C(=O)O)n(Cc5cccnc5)c34)cc2)CC1 | -5.63 | -5.63
Cc1cc(OCCCc2c(C(=O)O)n(Cc3cccnc3)c3c(-c4c(COc5ccc(N6CCN([S+](C)(=O)[O-])CC6)cc5)nn(C)c4C)cccc23)cc(C)c1Cl | -4.63 | -4.73
C[S+](=O)([O-])N1CCc2c(-c3cnc(N)nc3)nc(N3CCOCC3)nc21 | -6.43 | -5.68
N#C/C(=C1/Nc2ccccc2S1)c1ccnc(OCc2ccc(CN3CCOCC3)cc2)n1 | -5.98 | -7.43
NC/1=N/[C@]2(COC[C@H]2CS1)C3=CC(=CC=C3F)NC(=O)C4=NC=C(F)C=C4 | -5.48 | -5.93
NC1(Cc2ccc(Cl)cc2)CCN(c2ncnc3[nH]ccc23)CC1 | -4.78 | -4.83
Nc1ccc(C(=O)Nc2cccc(-c3nc(N4CCOCC4)c4oc5ncccc5c4n3)c2)cn1 | -5.18 | -5.38
NCC(=O)Nc1ccc(-n2nc(C(F)(F)F)cc2-c2ccc3c(ccc4ccccc43)c2)cc1 | -4.63 | -4.68
NC\1=N\C(=O)N(\C=C1F)[C@H]2C[C@H](O)[C@@H](CO)O2 | -6.53 | -8.38
N[S+]([O-])(=O)C1=CC=C(NC/2=C/C(=O)C3=CC=CC=C3C2=O)C=C1 | -4.98 | -6.23
O=C(NC1CC1)c1cccc(-c2ccc3c(NC(=O)C4CC4)n[nH]c3c2)c1 | -6.03 | -5.93
O=C(O)C1CCCN(CCC=C(c2ccccc2)c2ccccc2)C1 (stereo not drawn) | -5.03 | -5.53
O=[S+]([O-])(O)c1ccc2cc(/N=N/c3cc([S+](=O)([O-])O)c4cccnc4c3O)ccc2c1 | -4.93 | -4.68
O=C(CC12CC3CC(CC(C3)C1)C2)Nc1cccc2nc(NCCNCCO)ccc12 | -4.78 | -4.83
O=C1CSC(=O)N1C(CCc1ccncc1)COc1ccc(-c2cccc([N+](=O)[O-])c2)cc1 (stereo not drawn) | -5.78 | -5.88
O=C(Nc1ncc(SCCN2CCCC2)s1)[C@]1(c2ccc([S+](=O)([O-])C3CC3)cc2)C[C@H]1C1CCCCC1 | -4.78 | -5.03

— the supplement of paper PMC5412046
